Experimental data published in PMC3182833 (Molecular microbiology, 2011).

Molecular target: T1, SoArsAB (Sporomusa ovata, UniProt F6MZ55+F6MZ56)
T1 sequence (F6MZ55 1-350): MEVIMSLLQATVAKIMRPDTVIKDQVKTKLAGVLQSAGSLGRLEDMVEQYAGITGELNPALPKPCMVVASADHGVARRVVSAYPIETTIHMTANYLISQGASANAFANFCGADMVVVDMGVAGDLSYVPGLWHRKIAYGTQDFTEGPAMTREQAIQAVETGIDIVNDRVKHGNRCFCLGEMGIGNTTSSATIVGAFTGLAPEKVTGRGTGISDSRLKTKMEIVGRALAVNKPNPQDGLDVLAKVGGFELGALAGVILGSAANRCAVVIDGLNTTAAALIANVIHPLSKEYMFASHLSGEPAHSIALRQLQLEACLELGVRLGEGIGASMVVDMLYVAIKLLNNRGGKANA
T1 sequence (F6MZ56 1-350): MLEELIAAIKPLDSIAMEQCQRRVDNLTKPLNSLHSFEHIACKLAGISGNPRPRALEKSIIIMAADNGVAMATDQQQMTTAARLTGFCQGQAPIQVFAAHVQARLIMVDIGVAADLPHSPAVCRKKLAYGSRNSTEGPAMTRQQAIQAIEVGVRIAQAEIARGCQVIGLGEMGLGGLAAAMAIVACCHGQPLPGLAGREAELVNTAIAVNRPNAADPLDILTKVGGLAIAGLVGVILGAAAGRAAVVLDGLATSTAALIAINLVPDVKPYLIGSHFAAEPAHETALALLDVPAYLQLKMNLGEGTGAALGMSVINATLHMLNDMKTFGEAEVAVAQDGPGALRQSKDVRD
Test: product
Assay type: biochemical
Conditions: NaMN co-substrate; 6 h incubation

Cc1ccc(O)cc1 [P, p-cresol]
product (alpha-p-cresolyl-ribotide) by RP-HPLC and ESI-MS: The product of SoArsAB when phenol, p-cresol, or DMB was used as substrate was purified
